Experimental data: the supplement of paper PMC10883282

What was measured:
Test in all cases: relative viability vs DMSO control (72 h) (fraction); higher = more viable cells
G401 = tested on: G401
In short: (§1)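 Sarcoma cell lines went into 384-well plates at densities chosen to reach 80–90% confluence. After 24 h, each well received 2.5 µl of serially diluted compound, with source plates running from 10 mM to 0.0002 mM, and the plates were kept 72 h at 37 °C, 5% CO2, alongside 0.1% DMSO vehicle and a 5 µM positive control. Relative viability was derived from ATPLite readings as percent growth and averaged over up to triplicate wells. The data were then rescaled so that 1 stands for full and 0 for none.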

SK-ES-1 = tested on: SK-ES-1
In short: as §1

SYO-1 = tested on: SYO-1
In short: as §1

HS729 = tested on: HS729
In short: as §1

SW872 = tested on: SW872
In short: as §1

SK-LMS-1 = tested on: SK-LMS-1
In short: as §1

RD = tested on: RD
In short: as §1

VA-ES-BJ = tested on: VA-ES-BJ
In short: as §1

MES-SA = tested on: MES-SA
In short: as §1

SW684 = tested on: SW684
In short: as §1

KHOS-NP = tested on: KHOS-NP
In short: as §1

A204 = tested on: A204
In short: as §1

C#Cc1cccc(Nc2ncnc3cc(OCCOC)c(OCCOC)cc23)c1 [Erlotinib]
Conditions	relative viability
A204, 0.00017 µM	1.06
A204, 0.00051 µM	1.13
A204, 0.00152 µM	1.09
A204, 0.00457 µM	1.09
A204, 0.01372 µM	1.07
A204, 0.04115 µM	1.1
A204, 0.1235 µM	1.09
A204, 0.3704 µM	1.09
A204, 1.111 µM	1.01
A204, 3.333 µM	0.822
A204, 10 µM	0.546
G401, 0.00017 µM	1.04
G401, 0.00051 µM	1.05
G401, 0.00152 µM	1.02
G401, 0.00457 µM	1.04
G401, 0.01372 µM	1.01
G401, 0.04115 µM	1.03
G401, 0.1235 µM	1.018
G401, 0.3704 µM	1.05
G401, 1.111 µM	1.016
G401, 3.333 µM	0.9684
G401, 10 µM	0.787
HS729, 0.00017 µM	1.03
HS729, 0.00051 µM	0.978
HS729, 0.00152 µM	0.976
HS729, 0.00457 µM	0.961
HS729, 0.01372 µM	1.01
HS729, 0.04115 µM	1
HS729, 0.1235 µM	0.995
HS729, 0.3704 µM	1.01
HS729, 1.111 µM	0.92
HS729, 3.333 µM	0.781
HS729, 10 µM	0.714
KHOS-NP, 0.00017 µM	1.11
KHOS-NP, 0.00051 µM	1.092
KHOS-NP, 0.00152 µM	1.11
KHOS-NP, 0.00457 µM	1.11
KHOS-NP, 0.01372 µM	1.11
KHOS-NP, 0.04115 µM	1.1
KHOS-NP, 0.1235 µM	1.095
KHOS-NP, 0.3704 µM	1.1
KHOS-NP, 1.111 µM	1.1
KHOS-NP, 3.333 µM	1.086
KHOS-NP, 10 µM	1.04
MES-SA, 0.00017 µM	0.95
MES-SA, 0.00051 µM	0.973
MES-SA, 0.00152 µM	0.979
MES-SA, 0.00457 µM	0.945
MES-SA, 0.01372 µM	0.96
MES-SA, 0.04115 µM	0.972
MES-SA, 0.1235 µM	0.959
MES-SA, 0.3704 µM	0.948
MES-SA, 1.111 µM	0.914
MES-SA, 3.333 µM	0.687
MES-SA, 10 µM	0.458
RD, 0.00017 µM	1.08
RD, 0.00051 µM	1.09
RD, 0.00152 µM	1.09
RD, 0.00457 µM	1.08
RD, 0.01372 µM	1.07
RD, 0.04115 µM	1.09
RD, 0.1235 µM	1.09
RD, 0.3704 µM	1.1
RD, 1.111 µM	1.12
RD, 3.333 µM	1.04
RD, 10 µM	0.786
SK-ES-1, 0.00017 µM	1.048
SK-ES-1, 0.00051 µM	1.04
SK-ES-1, 0.00152 µM	1.08
SK-ES-1, 0.00457 µM	1.07
SK-ES-1, 0.01372 µM	1.09
SK-ES-1, 0.04115 µM	1.07
SK-ES-1, 0.1235 µM	1.05
SK-ES-1, 0.3704 µM	1.03
SK-ES-1, 1.111 µM	0.85
SK-ES-1, 3.333 µM	0.567
SK-ES-1, 10 µM	0.324
SK-LMS-1, 0.00017 µM	1.06
SK-LMS-1, 0.00051 µM	1.06
SK-LMS-1, 0.00152 µM	1.09
SK-LMS-1, 0.00457 µM	1.07
SK-LMS-1, 0.01372 µM	1.09
SK-LMS-1, 0.04115 µM	1.12
SK-LMS-1, 0.1235 µM	1.07
SK-LMS-1, 0.3704 µM	1.11
SK-LMS-1, 1.111 µM	1.07
SK-LMS-1, 3.333 µM	0.941
SK-LMS-1, 10 µM	0.698
SW684, 0.00017 µM	1.16
SW684, 0.00051 µM	1.15
SW684, 0.00152 µM	1.14
SW684, 0.00457 µM	1.23
SW684, 0.01372 µM	1.23
SW684, 0.04115 µM	1.19
SW684, 0.1235 µM	1.17
SW684, 0.3704 µM	1.19
SW684, 1.111 µM	1.2
SW684, 3.333 µM	1.18
SW684, 10 µM	1.05
SW872, 0.00017 µM	1.11
SW872, 0.00051 µM	1.12
SW872, 0.00152 µM	1.14
SW872, 0.00457 µM	1.11
SW872, 0.01372 µM	1.07
SW872, 0.04115 µM	1.1
SW872, 0.1235 µM	1.11
SW872, 0.3704 µM	1.06
SW872, 1.111 µM	1.04
SW872, 3.333 µM	0.822
SW872, 10 µM	0.638
SYO-1, 0.00017 µM	0.999
SYO-1, 0.00051 µM	0.998
SYO-1, 0.00152 µM	0.978
SYO-1, 0.00457 µM	0.979
SYO-1, 0.01372 µM	0.982
SYO-1, 0.04115 µM	0.9892
SYO-1, 0.1235 µM	0.967
SYO-1, 0.3704 µM	0.991
SYO-1, 1.111 µM	0.962
SYO-1, 3.333 µM	0.92
SYO-1, 10 µM	0.724
VA-ES-BJ, 0.00017 µM	1.088
VA-ES-BJ, 0.00051 µM	1.08
VA-ES-BJ, 0.00152 µM	1.08
VA-ES-BJ, 0.00457 µM	1.08
VA-ES-BJ, 0.01372 µM	1.06
VA-ES-BJ, 0.04115 µM	1.08
VA-ES-BJ, 0.1235 µM	1.09
VA-ES-BJ, 0.3704 µM	1.03
VA-ES-BJ, 1.111 µM	1.01
VA-ES-BJ, 3.333 µM	0.888
VA-ES-BJ, 10 µM	0.642
